Read-outs that look alike come from different tables or passages of the source.
Columns and labels:
PrPsc [1] = system: PrPsc
PrPC [2] = molecular target: PrPC (Bos taurus, UniProt P10279); conditions: fibronectin coupled with europium nanobeads, incubated with sample
PrPsc [3] = system: PrPsc; remark: listed apart in the source
PrPC [4] = molecular target: PrPC (Homo sapiens, UniProt P04156); conditions: microtiter plate coated with fibronectin
PrPsc [5] = conditions: cited from earlier work
prions = conditions: cited from earlier work

Sequence of PrPC (Bos taurus, UniProt P10279) (P10279 25-241 limits assumed): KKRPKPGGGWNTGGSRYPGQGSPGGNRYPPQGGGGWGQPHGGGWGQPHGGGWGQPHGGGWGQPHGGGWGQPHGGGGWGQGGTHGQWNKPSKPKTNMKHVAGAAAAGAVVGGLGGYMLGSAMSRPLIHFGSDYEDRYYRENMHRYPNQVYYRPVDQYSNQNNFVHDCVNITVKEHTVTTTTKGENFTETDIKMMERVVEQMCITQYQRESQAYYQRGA

Substance: fibronectin
- adherence of pathological PrP (PrPsc) (PrPsc [1]): adheres
- adherence of normal PrP (PrPc) (PrPC [2]): does not
- adherence of pathological PrP (PrPsc) (PrPsc [3]): adheres
- adherence of normal PrP (PrPc) (PrPC [4]): does not

Substance: plasminogen
- binding of PrPsc (PrPsc [5]): binding specifically

Substance: poly-b-xylose-2,3-disulphonate [Pentosan]
- inhibition of the production of prions (prions): inhibits the production of prions most strongly

Source: patent US7208281B2 (priority 2001, dated 2007)
